This passage reports Km results from US5994375A, “Benzamidine derivatives substituted by amino acid and hydroxy acid derivatives and their use as anti-coagulants” (Berlex Laboratories, Inc., priority 1996, dated 1999).

SMILES strings stand for the structures. Square brackets hold non-standard residues; d marks the D form. Peptide text beside a SMILES is read from it. * marks the point of attachment. pNA = O=[N+]([O-])c1ccc(N*)cc1

The target of experiment [1] is T1, Human tissue plasminogen activator (tPA) (Two chains, Sigma) (Homo sapiens, UniProt P00750).
T1 construct: purchased Sigma
Kind of experiment: In vitro chromogenic assay for tissue plasminogen activator (cleavage of peptide p-nitroanilide S2288). It is filed as biochemical. The conditions noted are these: substrate concentration stated equal to its Km under the assay conditions; 10 nM tPA, pH 7.5, ambient temperature. How it is done: (§1) The activities were determined as an initial rate of cleavage of the peptide p-nitroanilide by the enzyme. The cleavage product, p-nitroaniline, absorbs at 405 nm with a molar extinction coefficient of 9920 M^-1 cm^-1.
(§2) 50 mM TrisHCl, 150 mM NaCl, 2.5 mM CaCl2, and 0.1% polyethylene glycol 6000, pH 7.5.
3. Human tissue plasminogen activator (tPA) (Two chains, Sigma) stock solution: 1 mg/mL, stored at -80° C. (working solution (2×): 1361 ng/mL in assay buffer, prepare prior to use).
3. S2288 (tPA assay) stock solution: 10 mM in dH2 O, stored at 4° C. (working solution (4×): 1484 μM in assay buffer).
Assays were performed in 96-well microtiter plates in a total volume of 200 μl. […] Concentrations of the standard inhibitor compound in the assay were from 5 μM to 0.021 μM in 1 to 3 dilution. Concentration of the test compounds in the assay typically were from 10 μM to 0.041 μM in 1 to 3 dilution. For potent test compounds, the concentrations used in the factor Xa assay were further diluted 100 fold (100 nM to […]) or 1000 fold (10 nM to 0.041 nM). All substrate concentrations used are equal to their Km values under the present assay conditions. Assays were performed at ambient temperature. […]
(§3) The enzyme kinetics were measured at 405 nm at 10 seconds intervals for five minutes in a THERMOmax plate reader at ambient temperature.

The target of a further experiment is T2, Human thrombin (Homo sapiens, UniProt P00734).
T2 construct: Human thrombin stock solution; purchased Enzyme Research Lab
In words: In vitro chromogenic assay for thrombin (cleavage of peptide p-nitroanilide S2302). The following applies: substrate concentration stated equal to its Km under the assay conditions; 20 nM thrombin, pH 7.5, ambient temperature. It is filed as biochemical. On the procedure: as §1, §2
2. Human thrombin stock solution: Stored at -80° C. (working solution (2×): 1200 ng/mL or 40 nM in assay buffer, prepare prior to use).
2. S2302 (Thrombin assay) stock solution: 10 mM in dH2 O, stored at 4° C. (working solution (4×): 1200 μM in assay buffer).
Assays were performed in 96-well microtiter plates in a total volume of 200 μl. […] Concentrations of the standard inhibitor compound in the assay were from 5 μM to 0.021 μM in 1 to 3 dilution. Concentration of the test compounds in the assay typically were from 10 μM to 0.041 μM in 1 to 3 dilution. For potent test compounds, the concentrations used in the factor Xa assay were further diluted 100 fold (100 nM to […]) or 1000 fold (10 nM to 0.041 nM). […]
as §3
Enzyme rates were calculated as mOD/min based on the first two minutes readings. The IC50 values were determined by fitting the data to the log-logit equation (linear) or the Morrison equation (non-linear) with an EXCEL spread-sheet. […]

T1 sequence (P00750 311-562 limits assumed): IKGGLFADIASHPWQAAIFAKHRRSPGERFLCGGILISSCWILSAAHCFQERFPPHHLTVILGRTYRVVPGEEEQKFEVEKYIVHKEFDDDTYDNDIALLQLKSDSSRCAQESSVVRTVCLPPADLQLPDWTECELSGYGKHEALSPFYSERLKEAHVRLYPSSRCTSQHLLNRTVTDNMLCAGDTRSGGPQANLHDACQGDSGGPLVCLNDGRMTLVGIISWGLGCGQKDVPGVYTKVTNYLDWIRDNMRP
T1 sequence (P00750 36-310 partner limits assumed): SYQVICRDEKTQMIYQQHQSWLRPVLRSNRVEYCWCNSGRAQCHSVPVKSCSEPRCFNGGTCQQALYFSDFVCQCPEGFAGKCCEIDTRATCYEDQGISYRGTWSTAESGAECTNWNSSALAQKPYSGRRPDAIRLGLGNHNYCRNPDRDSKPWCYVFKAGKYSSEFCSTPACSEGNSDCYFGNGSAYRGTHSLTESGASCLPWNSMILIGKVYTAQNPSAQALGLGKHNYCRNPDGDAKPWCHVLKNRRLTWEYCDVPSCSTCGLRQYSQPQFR

For orientation: Km means the substrate concentration at which the rate is half of its maximum. `CC[C@@H](C)[C@@H](N)C(=O)N1CCC[C@H]1C(=O)N[C@@H](CCCN=C(N)N)C(=O)Nc1ccc([N+](=O)[O-])cc1` [Example S2288] (H-[dI]-Pro-Arg-pNA): the Km in experiment [1] is 371 µM.

`N=C(N)NCCC[C@H](NC(=O)[C@H](Cc1ccccc1)NC(=O)[C@H]1CCCN1)C(=O)Nc1ccc([N+](=O)[O-])cc1` [Example S2302] (H-[dP]-Phe-Arg-pNA): on Human thrombin, the Km was 300 µM.
